Where two headings read alike, the source gives them in different places.
Experiments:
[1] = system: ID-8 (murine ovarian cancer) cell line; assay: cells; conditions: Mus musculus, 72 h, read-out: Cytotoxicity IC50, ID-8
[2] = system: MX-1 (human breast cancer) cell line; assay: cells; conditions: 72 h, read-out: Cytotoxicity IC50, MX-1
in vitro = conditions: human
[3] = system: ID-8 (murine ovarian cancer) cell line
[4] = system: MX-1 (human breast cancer) cell line
[5] = system: WI-38 (human lung fibroblast, normal) cell line

Compound | IC50 [1] | IC50 [2] | IC50 (in vitro) | IC50 [3] | IC50 [4] | IC50 [5]
CC(=O)O[C@H]1C(=O)[C@@]2(C)[C@H]([C@H](OC(=O)c3ccccc3)[C@]3(O)C[C@H](OC(=O)[C@H](O)[C@@H](NC(=O)c4ccccc4)c4ccccc4)C(C)=C1C3(C)C)[C@]1(OC(C)=O)CO[C@@H]1C[C@@H]2O [paclitaxel] | 21.2 ± 4.3 nM | 3.83 ± 0.59 nM | 175 ± 51.6 nM | – | – | –
SB-T-1214 [compound 4, reference compound] | – | – | – | 1.89 ± 0.3 nM | 2.9 ± 0.47 nM | 4.14 ± 0.82 nM

— PMC5928494 (ACS Omega, 2018)
